Assay results from PubChem BioAssay (NCI).
Several values for one entry are separate records, joined by “and”; a condition that tells them apart may be missing. Equal values may be shown once.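 Growth conditions: 96-well plates. Treatment: test compound, 48 hours, 5 concentrations. Analysis: linear interpolation between bracketing concentrations; unreached endpoints set to highest concentration. GI50 marks 50% less growth. TGI denotes the concentration required for complete inhibition of growth.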

Columns and labels:
Experiment in all cases: DTP human tumour cell line panel, 48 h
A498 renal = test system: A498 renal
CCRF-CEM leukemia = test system: CCRF-CEM leukemia
LOX IMVI melanoma = test system: LOX IMVI melanoma
MALME-3M melanoma = test system: MALME-3M melanoma
OVCAR-4 ovarian = test system: OVCAR-4 ovarian
OVCAR-5 ovarian = test system: OVCAR-5 ovarian
RXF 393 renal = test system: RXF 393 renal
SF-268 CNS = test system: SF-268 CNS
SF-539 CNS = test system: SF-539 CNS
SW-620 colon = test system: SW-620 colon

Compound | GI50 (A498 renal) [µM] | TGI (A498 renal) [µM] | GI50 (CCRF-CEM leukemia) [µM] | TGI (CCRF-CEM leukemia) [µM] | GI50 (LOX IMVI melanoma) [µM] | TGI (LOX IMVI melanoma) [µM] | GI50 (MALME-3M melanoma) [µM] | TGI (MALME-3M melanoma) [µM] | GI50 (OVCAR-4 ovarian) [µM] | TGI (OVCAR-4 ovarian) | GI50 (OVCAR-5 ovarian) [µM] | TGI (OVCAR-5 ovarian) [µM] | GI50 (RXF 393 renal) [µM] | TGI (RXF 393 renal) [µM] | GI50 (SF-268 CNS) [µM] | TGI (SF-268 CNS) [µM] | GI50 (SF-539 CNS) [µM] | TGI (SF-539 CNS) [µM] | GI50 (SW-620 colon) [µM] | TGI (SW-620 colon) [µM]
CCCCCC(O)C1C(=O)OC(C)C(O)/C=C/C=C/C=C/C=C\C=C(\C)C(O)CC(O)CC(O)CC(O)CC(O)CC(O)CC1O (stereo unspecified) | > 100 | > 100 | > 100 | > 100 | > 100 | > 100 | > 100 | > 100 | > 100 | 26.3 µM and > 100 µM | > 100 | > 100 | > 100 | > 100 | > 100 | > 100 | > 100 | > 100 | > 100 | > 100
CSc1cnn(CCC#N)c(=O)n1 | – | > 100 | – | > 100 | – | > 100 | – | > 100 | – | – | – | > 100 | – | > 100 | – | > 100 | – | > 100 | – | > 100
CC(=O)c1ccc(NC(=O)CSc2nnc(-c3cc(-c4ccc(C)cc4)nc4ccccc34)o2)cc1 | 2.3 | 7.5 | 4.03 | > 100 | 2.64 | 9.09 | 2.67 | 8.34 | – | – | 6.01 | > 100 | 2.01 | 4.26 | 3.12 | > 100 | 1.8 | 3.92 | 3.24 | > 100
COC1(OC)CC2C=C(S(=O)(=O)c3ccccc3)C1N(Cc1ccccc1)C2=O (stereo unspecified) | – | 57.1 | – | 90.9 | – | 33.1 | – | > 100 | – | > 100 µM | – | – | – | 49.8 | – | > 100 | – | 44.9 | – | 76.8
